One may read the melting point as the temperature of the solid-liquid transition.

The structures appear in SMILES notation. Some results are limits rather than exact numbers.

Regarding `O=C(Nc1cccc(S(=O)(=O)Nc2ccccc2)c1)NC1N=C(c2ccccc2F)c2ccccc2N(CC(=O)N2CC3CCC(CC3)C2)C1=O` (racemic), the melting point was in the range of 181 to 188 °C.

`CCCN(CCC)S(=O)(=O)c1ccc(C(=O)c2cc3c(cc2C)OC(C(=O)OCC)O3)cc1` (stereo not given) showed a melting point of 97 to 99 °C.

`COc1ccc2c(c1O)C13CCN(C)C(C2)C1CC(C)C(=O)C3` (stereo not given) displayed a melting point of 166 to 167 °C.

Regarding `COc1ccc2nccc(CCC[C@@H]3CCN(CC#Cc4ccccc4F)C[C@@H]3C(=O)O)c2c1`, the melting point is 154 °C.

In turn, `N#Cc1ccc(-c2ccc(-c3nc4cc(C#N)ccc4[nH]3)cc2)nc1` displayed a melting point of 346 to 347 °C.

For the molecule `CC(=O)c1ccc2ccccc2c1OC(F)F`, the melting point was in the range of 80 to 81 °C.

For the molecule `Cc1nnc2n1-c1ccc(Br)cc1C(c1ccccc1F)=NC2`, the melting point fell in the range of 213 to 214 °C.

As to `C#CCCCCC(=O)Nc1nc2nn(C)cc2c2nc(-c3ccco3)nn12`, the melting point was 208 to 215 °C.

For the molecule `Nc1c(SC(F)(F)F)c(C(=O)O)nn1-c1c(Cl)cc(C(F)(F)F)cc1Cl`, the melting point worked out at 199 °C.

`CC(CCC(F)(F)C(C)(C)O)C1CCC2C3CCC4=CC(=O)CCC4(C)C3CCC12C` (stereo not given) yielded a melting point of 177 to 178 °C.

Turning to `CN(C)S(=O)(=O)Nc1ccc(C(=O)Nc2ccccc2)cc1`, the melting point was in the range of 213 to 215 °C.

For the molecule `CC(OC(=O)C1CCNCC1)C(c1ccccc1)(c1ccccc1)c1ccccc1` (stereo not given), the melting point is 154 to 155 °C.

Turning to `COCC(C)(C)C(=O)O[C@H]1C[C@H](O)C=C2C=C[C@H](C)[C@H](CC[C@@H]3C[C@@H](O)CC(=O)O3)[C@H]21`, the melting point is 140 to 142 °C.

As to `CCOC(=O)C=C1CC(c2cccc(C3(c4ccc(OC(F)F)cc4)N=C(N)N(C)C3=O)c2)C1` (stereo not given), the melting point lay within 78 to 80 °C.

The molecule `O=C1Nc2ccc(F)cc2C12COc1cc3c(cc12)CCO3` (stereo not given) came in with a melting point of 257 to 259 °C.

For the molecule `N#CC=Cc1ccc(C=Cc2ccc(Br)cc2)cc1`, the melting point worked out at 258 °C.

In turn, `CN(CCc1ccccc1)C(=O)Cn1cc(C=Cc2nnn[nH]2)c2cc(OCc3ccccc3)ccc21` registered a melting point of 203 to 205 °C.

As for `CCCCCCCCCCCCCCCC(=O)NC(Cc1cc(CP(=O)(O)O)cc(-c2ccccc2)c1)C(=O)O` (stereo not given), the melting point was in the range of 130 to 140 °C.

On to `CCCCCCCCCCCCCCCCCCNC(=O)c1ccccc1`, for which the melting point fell in the range of 85 to 87 °C.

On to `CC(C)(C)OC(=O)N1CCNC[C@H]1C(c1ccccc1)c1ccccc1`, for which the melting point fell in the range of 100 to 105 °C.

`C=CCN1CCn2c1nc1ccc(Cl)cc1c2=O` yielded a melting point of 91 to 93 °C.

In turn, `N#Cc1ccc(N(Cc2ccc(O)c(Br)c2)n2cnnc2)cc1-c1ccccc1` returned a melting point of 218 to 220 °C.

Molecule `O=C(O)C(Cc1ccccc1)Oc1ccc(-c2ccc(-c3c(Br)oc4ccccc34)cc2)cc1` (stereo not given) registered a melting point of 148 to 149 °C.

`O=C(Nc1ccc2c(c1)CCN2)C(=O)N1CCC(Cc2ccccc2)CC1`: the melting point is 75 to 76 °C.

As for `OC1CSC(Oc2cccnc2-c2ccco2)C(O)C1O` (stereo not given), the melting point is 184 °C.

As for `COc1nc(Nc2ccc(F)cc2F)c(C(=O)Cl)cc1F`, the melting point lay in the range of 153 to 154 °C.

Molecule `COc1cc2ncc(C#N)c(Nc3ccc4ncccc4c3)c2cc1OC` yielded a melting point of 241 to 243 °C.

Molecule `CCCc1c(C#CCCCCOc2ccccc2CCC(=O)O)ccc2c1OCCC2=O` showed a melting point of 88 to 92 °C.

Molecule `O=c1[nH]c2ccc(C3=NOC(CN4CCC(C(O)c5ccc(F)cc5)CC4)C3)cc2o1` (stereo not given) returned a melting point of 186 to 191 °C.

The molecule `CCS(=O)(=O)CCC(=O)NNC(=O)N1Cc2ccccc2Oc2ccc(OC)cc21` came in with a melting point of 187 to 190 °C.

Turning to `O=C(O)C1=Cc2cc(F)cc(Br)c2OC1C(F)(F)F` (stereo not given), the melting point was > 300 °C.

Turning to `Cc1ccc([C@H](CC(=O)O)NC(=O)Nc2c(OCc3ccccc3)cc(C)n(Cc3ccccc3)c2=O)cc1`, the melting point is 124 to 126 °C.

Regarding `NC(=O)CC1=C(n2nc(-c3c(-c4ccccc4)nn4ccccc34)ccc2=O)CCCC1`, the melting point fell in the range of 204 to 205 °C.

For the molecule `O=C1CCCCC(CO)N1` (stereo not given), the melting point stood at 100 °C.

`CC(C(=O)O)c1ccc2c(c1)C(=O)Cc1cc(N)ccc1S2` (stereo not given) had a melting point of 189 to 191 °C.

Turning to `Cc1ccccc1-c1nc(OCCN(C)C)ncc1N(C)C(=O)C(C)(C)c1cc(C(F)(F)F)cc(C(F)(F)F)c1`, the melting point was in the range of 140 to 141 °C.

Turning to `O=C1CC(=Cc2cccc3ccccc23)C(=O)O1`, the melting point was 162 to 164 °C.

In turn, `CCCCOc1cc(C(=O)O)cc(NC(C)=O)c1C(=O)c1ccccc1` yielded a melting point of 177 to 178 °C.

The molecule `BrCc1cccc(-c2ccccc2)c1` came in with a melting point of 54 to 56 °C.

As for `COc1ccc(C)nc1Cn1c(NCCCN2CCOCC2)nc2ccc(CNc3cc(C)ccc3CCCO)cc21`, the melting point came out at 132 °C.

In the case of `C[C@@H](O[C@H]1CCCN(Cc2n[nH]c(=O)[nH]2)[C@H]1c1ccccc1)c1cccc(C(F)(F)F)c1`, the melting point lay in the range of 143 to 145 °C.

`O=C1c2cnc3[nH]ncc3c2C(=O)N1CCc1ccccc1` gave a melting point of 237 to 239 °C.

Molecule `CCOC(=O)c1ccc(CNC(=O)CI)cc1O` came in with a melting point of 105 to 108 °C.

For the molecule `Cc1cc(-c2ccc(F)cc2)nc(O)n1`, the melting point fell in the range of 265 to 268 °C.

For `CN(C(=O)COc1cc(-c2ccccc2)nc2ccccc12)N1CCOCC1`, the melting point was 189 °C.

On to `O=C(O)/C=C/c1ccc(C(=O)c2c(-c3ccc(O)cc3)sc3cc(O)ccc23)cc1`, for which the melting point is 155 to 160 °C.

`C=Cc1cc(CNC(=O)C#Cc2ccc(C(C)(C)C)cc2)cc(F)c1NS(C)(=O)=O`: the melting point fell in the range of 155 to 157 °C.

`Cc1oc(C)c(C(=O)OC2CC(C)(C)N(CC#N)C(C)(C)C2)c1C` registered a melting point of 88 to 89 °C.

`Cn1c(=O)c(S(C)(=O)=O)c(O)c2ccccc21` yielded a melting point of 169 to 172 °C.

Take `COC(=O)COc1ccc(NC(=O)CO)cc1`: the melting point lay within 148 to 150 °C.

In the case of `CCCC1(CCC(C)=O)Cc2cc(CCC(=O)O)c(Cl)c(Cl)c2C1=O` (stereo not given), the melting point is 131 to 133 °C.

Molecule `Cc1c(C)c2c(c(C)c1NC(=O)NC(C)(C)C)C(O)(c1ccc3ccccc3c1)C(C)(C)O2` (stereo not given) returned a melting point of 212 to 214 °C.

For `CCCCc1ccc(C(=O)NCc2cccc3c2C(=O)N(C2CCC(=O)NC2=O)C3=O)nc1` (stereo not given), the melting point lay in the range of 137 to 139 °C.

Molecule `C[Si](C)(C)O[C@@]1(C(F)(F)F)OCN(C(=O)OCc2ccccc2)[C@H]1Cc1ccccc1` had a melting point of 98 to 101 °C.

As to `Cc1ccc(N(c2ccc(C)c(C)c2)c2cccc3ccccc23)cc1C`, the melting point fell in the range of 125 to 127 °C.

For the molecule `CC(=O)OC1CCC2C3CCC4C(=O)CCCC4(C)C3CCC12C` (stereo not given), the melting point was in the range of 160 to 163 °C.

For the molecule `CCOC(=O)C(Cc1ccc(OCCNC(=O)c2ccc(-c3ccccc3)cc2)cc1)Oc1ccccc1` (stereo not given), the melting point was 103 to 104 °C.

Regarding `CCOc1nn(Cc2cc(OCc3ccc4ccccc4n3)no2)cc1CCC(=O)O`, the melting point fell in the range of 123 to 124 °C.

With `O=C1CCCN1C(=O)Oc1cccc([N+](=O)[O-])c1`, the melting point is 130 to 131 °C.

For `Cc1ccc(S(=O)(=O)OC2CCc3[nH]c4ccccc4c3C2)cc1` (stereo not given), the melting point lay in the range of 148 to 151 °C.

Molecule `CCOC(=O)C1=NOC2(CCC(C3CCCCC3)CC2)C1` (stereo not given) registered a melting point of 64 to 71 °C.

In the case of `COc1cc2ncnc(N3CCc4ccc(Cl)cc43)c2cc1Cl`, the melting point was 226 °C.

`Cn1cc(C(=O)NCc2ccc(Cl)cc2)c(=O)c2cc(CCl)ccc21`: the melting point fell in the range of 241 to 242 °C.

On to `CN1CCN(c2ccc(C3(C)C(=O)Nc4ccc(Cl)cc43)c(Cl)c2)CC1` (stereo not given), for which the melting point amounted to 155 °C.

`O=c1[nH]c2cc(Cl)ccc2c(=O)c(-c2ccco2)c1O` returned a melting point of 233 to 234 °C.

Molecule `COc1ccc(CN2C(=O)[C@H]3CCC[C@H]3N(C(=O)CN3C(=O)c4ccccc4C3=O)c3ccccc32)cc1` (relative stereo) came in with a melting point of 237 to 238 °C.

Take `CCCCn1c(CCC)ccc1Cc1cccc(NC(N)=O)c1`: the melting point is 85 to 89 °C.

In the case of `Cc1nn(CC2CCCC2)c2nc(-c3ccncc3)nc(N)c12`, the melting point was in the range of 177 to 178 °C.

For the molecule `COc1cc(Nc2nc3cccc(-c4ccc(C)c(N)c4)c3o2)cc(OC)c1OC`, the melting point lay within 188 to 190 °C.

`O=CNCc1nc2ccccc2o1`: the melting point is 98 to 99 °C.

`O=C(O)c1cc(C(=O)O)c(C(O)=NCc2ccc(C(F)(F)F)cc2)cc1C(O)=NCc1ccc(C(F)(F)F)cc1` displayed a melting point of 263 to 264 °C.

Turning to `Clc1ccccc1-c1noc(-c2ccccc2Cl)n1`, the melting point is 91 to 92 °C.

The molecule `CCOC(=O)Oc1c(OC)cc(Cl)c2c1CN1CCc3cc(OC)c(OCc4ccccc4)cc3C1C2` (stereo not given) yielded a melting point of 128 °C.

With `O=c1cc(N2CCSCC2)oc2c1ccc1ccccc12`, the melting point is 171 to 173 °C.

In turn, `CCCn1c(=O)n2c(C)nnc2c2[nH]cnc21` returned a melting point of 298 to 299 °C.

`CCCCC1=N/C(=C\c2c[nH]c3ncc(Cl)cc23)C(=O)N1C` showed a melting point of 295 to 300 °C.

Consider `CCCC(O)C(C)C(=O)NCc1ccccc1` (stereo not given), for which the melting point fell in the range of 114 to 115 °C.

Turning to `CS(=O)(=O)C(=C1CN(C(c2ccccc2)c2ccccc2)C1)c1cccc(I)c1`, the melting point is 198 °C.

`CC(C)(CON=Cc1ccccc1Cl)C(=O)O`: the melting point lay within 78 to 80 °C.

Molecule `CCOc1cccc(NC(=O)Nc2ccc(N3CCN(C(=O)Nc4ccc(OCCO)cc4C(F)(F)F)CC3)cc2)c1` registered a melting point of 108 to 110 °C.

On to `Cc1cc(Cl)c2[nH]nc(-c3ccc(Cl)cc3)c2n1`, for which the melting point was 243 to 245 °C.

`O=C(NCCC(Nc1ccccc1)c1ccccc1)c1ccccc1` (stereo not given) registered a melting point of 120 to 121 °C.

Turning to `Cc1c(C)c2c(c(C)c1OCc1ccc(S(C)=O)cc1)C(c1ccc(C(C)C)cc1)C(C)(C)O2` (stereo not given), the melting point lay in the range of 132 to 134 °C.

As for `COCC1CN(c2ccc3cc(OCCS(C)=O)ccc3c2)C(=O)O1` (stereo not given), the melting point is 133 to 141 °C.

The molecule `CN(C(=O)Nc1nc(OCC(F)(F)F)cc(OCC(F)(F)F)n1)c1ccc(OC(F)(F)F)cc1` came in with a melting point of 100 to 102 °C.
